Measured values reported in ChEMBL document CHEMBL3045482, “Synthesis, crystal structure, in vitro acetohydroxyacid synthase inhibition, in vivo herbicidal activity, and 3D-QSAR of new asymmetric aryl disulfides” (J Agric Food Chem, 2012).

test system: Brassica rapa subsp. oleifera; assay: Herbicidal activity against Brassica rapa subsp. oleifera assessed as Brassica rapa subsp. oleifera root growth inhibition at 100 mg/L; assay type: functional; details: read-out: GI

Point of comparison: `Cc1nc(SSc2ccc3ccccc3c2)n[nH]1`, inhibition of growth at 100 µg/mL 0%. Against it:
- COc1ccc(SSc2nc[nH]n2)cc1 — higher, 44.6%
- Cc1nc(SSc2ccccc2)n[nH]1 — higher, 69.4%
- Cc1ccc(SSc2n[nH]c(C)n2)cc1 — higher, 62.5%
- COC(=O)c1ccccc1SSc1n[nH]c(C)n1 — higher, 10.6%
- CCOC(=O)c1ccccc1SSc1n[nH]c(C)n1 — higher, 26.6%
- Cc1nc(SSc2ccccc2[N+](=O)[O-])n[nH]1 — higher, 59.6%
- COc1ccc(SSc2n[nH]c(C)n2)cc1 — higher, 28.3%
- Cc1nc(SSc2ccc(Cl)cc2)n[nH]1 — higher, 24.1%
- Cc1nc(SSc2ccc(Br)cc2)n[nH]1 — higher, 17.6%
- Cc1nc(SSc2ccccc2F)n[nH]1 — higher, 13%
- Cc1nc(SSc2ccccc2C)n[nH]1 — higher, 36.8%
- c1ccc(SSc2n[nH]c(-c3ccccc3)n2)cc1 — higher, 81.7%
- Cc1ccc(SSc2n[nH]c(-c3ccccc3)n2)cc1 — higher, 87.5%
- COC(=O)c1ccccc1SSc1n[nH]c(-c2ccccc2)n1 — higher, 52.8%
- CCOC(=O)c1ccccc1SSc1n[nH]c(-c2ccccc2)n1 — higher, 34.3%
- O=[N+]([O-])c1ccccc1SSc1n[nH]c(-c2ccccc2)n1 — the same, 0%
- COc1ccc(SSc2n[nH]c(-c3ccccc3)n2)cc1 — higher, 29.4%
- Clc1ccc(SSc2n[nH]c(-c3ccccc3)n2)cc1 — higher, 37.5%
- Cc1ccc(-c2nc(SSc3ccccc3)n[nH]2)cc1 — higher, 54.1%
- Cc1ccc(SSc2n[nH]c(-c3ccc(C)cc3)n2)cc1 — the same, 0%
- COC(=O)c1ccccc1SSc1n[nH]c(-c2ccc(C)cc2)n1 — higher, 44.9%
- CCOC(=O)c1ccccc1SSc1n[nH]c(-c2ccc(C)cc2)n1 — the same, 0%
- Cc1ccc(-c2nc(SSc3ccccc3[N+](=O)[O-])n[nH]2)cc1 — the same, 0%
- COc1ccc(SSc2n[nH]c(-c3ccc(C)cc3)n2)cc1 — higher, 11%
- Cc1ccc(-c2nc(SSc3ccc(Cl)cc3)n[nH]2)cc1 — higher, 24.1%
- c1ccc(SSc2n[nH]c(-c3ccncc3)n2)cc1 — higher, 70.2%
- Cc1ccc(SSc2n[nH]c(-c3ccncc3)n2)cc1 — higher, 6.9%
- COC(=O)c1ccccc1SSc1n[nH]c(-c2ccncc2)n1 — higher, 30.5%
- CCOC(=O)c1ccccc1SSc1n[nH]c(-c2ccncc2)n1 — the same, 0%
- O=[N+]([O-])c1ccccc1SSc1n[nH]c(-c2ccncc2)n1 — the same, 0%
- COc1ccc(SSc2n[nH]c(-c3ccncc3)n2)cc1 — the same, 0%
- Clc1ccc(SSc2n[nH]c(-c3ccncc3)n2)cc1 — the same, 0%
- c1ccc(SSc2n[nH]c(-c3cccnc3)n2)cc1 — higher, 66.2%
- Cc1ccc(SSc2n[nH]c(-c3cccnc3)n2)cc1 — the same, 0%
- COC(=O)c1ccccc1SSc1n[nH]c(-c2cccnc2)n1 — the same, 0%
- CCOC(=O)c1ccccc1SSc1n[nH]c(-c2cccnc2)n1 — the same, 0%
- O=[N+]([O-])c1ccccc1SSc1n[nH]c(-c2cccnc2)n1 — higher, 27.4%
- COc1ccc(SSc2n[nH]c(-c3cccnc3)n2)cc1 — higher, 14.3%
- Clc1ccc(SSc2n[nH]c(-c3cccnc3)n2)cc1 — the same, 0%
- c1ccc(SSc2nc[nH]n2)cc1 — higher, 86.6%
- Cc1ccc(SSc2nc[nH]n2)cc1 — higher, 67.5%
- COC(=O)c1ccccc1SSc1nc[nH]n1 — higher, 54.8%
- CCOC(=O)c1ccccc1SSc1nc[nH]n1 — higher, 21.1%
- O=[N+]([O-])c1ccccc1SSc1nc[nH]n1 — higher, 69.8%
- Clc1ccc(SSc2nc[nH]n2)cc1 — higher, 50.2%
- Brc1ccc(SSc2nc[nH]n2)cc1 — higher, 27.4%
- Fc1ccccc1SSc1nc[nH]n1 — higher, 47.2%
- Cc1ccccc1SSc1nc[nH]n1 — higher, 43.6%
- c1ccc2cc(SSc3nc[nH]n3)ccc2c1 — higher, 16.3%
- COC(=O)c1ccccc1S(=O)(=O)NC(=O)Nc1nccc(C)n1 [MONOSULFURON ESTER] — higher, 88.5%

target: Acetolactate synthase, chloroplastic (Arabidopsis thaliana, UniProt P17597, W574L); details: not given

Point of comparison: `Cc1nc(SSc2ccccc2[N+](=O)[O-])n[nH]1`, Ki 27.1 µM. Against it:
- Cc1ccc(SSc2nc[nH]n2)cc1 — within 1.5-fold, 25.7 µM
- CC(C)C1(C)N=C(c2nc3ccccc3cc2C(=O)O)NC1=O (stereo not drawn) [IMAZAQUIN] — 17-fold higher, 470 µM
- COC(=O)c1ccccc1S(=O)(=O)NC(=O)Nc1nccc(C)n1 [MONOSULFURON ESTER] — 3.2-fold lower, 8.53 µM

target: T1, Acetolactate synthase, chloroplastic (Arabidopsis thaliana, UniProt P17597); details: not given
T1 sequence (P17597 whole entry): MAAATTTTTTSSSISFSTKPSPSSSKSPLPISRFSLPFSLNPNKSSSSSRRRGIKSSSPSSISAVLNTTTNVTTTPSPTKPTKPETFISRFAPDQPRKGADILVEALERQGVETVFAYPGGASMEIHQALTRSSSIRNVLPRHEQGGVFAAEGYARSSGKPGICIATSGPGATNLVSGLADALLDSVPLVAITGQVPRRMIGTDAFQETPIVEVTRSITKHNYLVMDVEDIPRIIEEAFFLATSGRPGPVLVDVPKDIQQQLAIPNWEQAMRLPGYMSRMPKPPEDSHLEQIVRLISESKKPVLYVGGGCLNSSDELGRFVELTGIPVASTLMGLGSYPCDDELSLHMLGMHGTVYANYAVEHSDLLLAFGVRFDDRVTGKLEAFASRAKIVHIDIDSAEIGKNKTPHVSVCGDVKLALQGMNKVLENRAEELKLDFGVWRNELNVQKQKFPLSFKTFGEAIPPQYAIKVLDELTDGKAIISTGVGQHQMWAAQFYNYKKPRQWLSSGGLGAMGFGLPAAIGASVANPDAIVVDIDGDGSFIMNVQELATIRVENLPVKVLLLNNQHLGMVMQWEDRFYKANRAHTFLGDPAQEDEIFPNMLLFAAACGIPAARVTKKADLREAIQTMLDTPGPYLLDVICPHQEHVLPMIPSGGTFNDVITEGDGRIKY

Point of comparison: `COC(=O)c1ccccc1S(=O)(=O)NC(=O)Nc1nccc(C)n1` [MONOSULFURON ESTER], Ki 0.26 µM. Against it:
- Cc1nc(SSc2ccccc2[N+](=O)[O-])n[nH]1 — 21-fold higher, 5.57 µM
- Cc1ccc(SSc2nc[nH]n2)cc1 — 18-fold higher, 4.69 µM
